Test system: MRSA clinical isolates
Test: Antibiotic susceptibility profile of MRSA clinical isolates (EUCAST breakpoints)
Assay type: cell-based, Staphylococcus aureus
Description: Clinical MRSA isolates with multidrug resistance were obtained from the collection of the Research Institute of Antimicrobial Chemotherapy, Smolensk State Medical Academy.

With `CC(=O)O[C@H]1C[C@@]2(C)[C@@H](C[C@@H](O)[C@H]3[C@@]4(C)CC[C@@H](O)[C@@H](C)[C@@H]4CC[C@@]32C)/C1=C(\CCC=C(C)C)C(=O)O` [Fusidic acid] the Drug sensibility profile (MRSA strain 1) was “S”, the Drug sensibility profile (MRSA strain 2) was “S” and the Drug sensibility profile (MRSA strain 3) was “S”. For the same compound, the Drug sensibility profile (MRSA strain 4) was “S”, the Drug sensibility profile (MRSA strain 5) was “S” and the Drug sensibility profile (MRSA strain 6) was “S”. The Drug sensibility profile (MRSA strain 7) was “S”, the Drug sensibility profile (MRSA strain 8) was “S” and the Drug sensibility profile (MRSA strain 9) was “S”. For the same compound, the Drug sensibility profile (MRSA strain 10) was “S”, the Drug sensibility profile (MRSA strain 12) was “S” and the Drug sensibility profile (MRSA strain 13) was “S”. For the same compound, the Drug sensibility profile (MRSA strain 14) was “S”, the Drug sensibility profile (MRSA strain 15) was “S” and the Drug sensibility profile (MRSA strain 16) was “S”. The Drug sensibility profile (MRSA strain 17) was “R”, the Drug sensibility profile (MRSA strain 18) was “S” and the Drug sensibility profile (MRSA strain 21) was “S”. For the same compound, the Drug sensibility profile (MRSA strain 23) was “S”, the Drug sensibility profile (MRSA strain 24) was “S” and the Drug sensibility profile (MRSA strain 25) was “S”. The Drug sensibility profile (MRSA strain 26) was “S”, the Drug sensibility profile (MRSA strain 27) was “S” and the Drug sensibility profile (MRSA strain 28) was “S”. The Drug sensibility profile (MRSA strain 29) was “S”, the Drug sensibility profile (MRSA strain 30) was “S” and the Drug sensibility profile (MRSA strain 31) was “S”. The Drug sensibility profile (MRSA strain 34) was “S”, the Drug sensibility profile (MRSA strain 35) was “S” and the Drug sensibility profile (MRSA strain 36) was “S”. For the same compound, the Drug sensibility profile (MRSA strain 40) was “S”, the Drug sensibility profile (MRSA strain 41) was “S” and the Drug sensibility profile (MRSA strain 42) was “S”. For the same compound, the Drug sensibility profile (MRSA strain 43) was “S”, the Drug sensibility profile (MRSA strain 44) was “S” and the Drug sensibility profile (MRSA strain 45) was “S”. The Drug sensibility profile (MRSA strain 46) was “S”, the Drug sensibility profile (MRSA strain 48) was “S” and the Drug sensibility profile (MRSA strain 49) was “S”. For the same compound, the Drug sensibility profile (MRSA strain 50) was “S” and the Drug sensibility profile (MRSA strain 51) was “S”.
With `C/C(=C\C(=O)OCCCCCCCCC(=O)O)C[C@@H]1OC[C@H](C[C@@H]2O[C@H]2[C@@H](C)[C@H](C)O)[C@@H](O)[C@H]1O` [Mupirocin] the Drug sensibility profile (MRSA strain 1) was “S”, the Drug sensibility profile (MRSA strain 2) was “S” and the Drug sensibility profile (MRSA strain 3) was “S”. For the same compound, the Drug sensibility profile (MRSA strain 4) was “S”, the Drug sensibility profile (MRSA strain 5) was “S” and the Drug sensibility profile (MRSA strain 6) was “S”. For the same compound, the Drug sensibility profile (MRSA strain 7) was “S”, the Drug sensibility profile (MRSA strain 8) was “S” and the Drug sensibility profile (MRSA strain 9) was “S”. For the same compound, the Drug sensibility profile (MRSA strain 10) was “S”, the Drug sensibility profile (MRSA strain 12) was “S” and the Drug sensibility profile (MRSA strain 13) was “S”. The Drug sensibility profile (MRSA strain 14) was “S”, the Drug sensibility profile (MRSA strain 15) was “S” and the Drug sensibility profile (MRSA strain 16) was “S”. For the same compound, the Drug sensibility profile (MRSA strain 17) was “S”, the Drug sensibility profile (MRSA strain 18) was “S” and the Drug sensibility profile (MRSA strain 21) was “S”. The Drug sensibility profile (MRSA strain 23) was “S”, the Drug sensibility profile (MRSA strain 24) was “S” and the Drug sensibility profile (MRSA strain 25) was “S”. For the same compound, the Drug sensibility profile (MRSA strain 26) was “S”, the Drug sensibility profile (MRSA strain 27) was “S” and the Drug sensibility profile (MRSA strain 28) was “S”. The Drug sensibility profile (MRSA strain 29) was “S”, the Drug sensibility profile (MRSA strain 30) was “S” and the Drug sensibility profile (MRSA strain 31) was “S”. The Drug sensibility profile (MRSA strain 34) was “S”, the Drug sensibility profile (MRSA strain 35) was “S” and the Drug sensibility profile (MRSA strain 36) was “S”. For the same compound, the Drug sensibility profile (MRSA strain 40) was “S”, the Drug sensibility profile (MRSA strain 41) was “S” and the Drug sensibility profile (MRSA strain 42) was “S”. For the same compound, the Drug sensibility profile (MRSA strain 43) was “S”, the Drug sensibility profile (MRSA strain 44) was “S” and the Drug sensibility profile (MRSA strain 45) was “S”. The Drug sensibility profile (MRSA strain 46) was “S”, the Drug sensibility profile (MRSA strain 48) was “S” and the Drug sensibility profile (MRSA strain 49) was “S”. For the same compound, the Drug sensibility profile (MRSA strain 50) was “I” and the Drug sensibility profile (MRSA strain 51) was “S”.
With `Cn1nnc(-c2ccc(-c3ccc(N4C[C@H](CO)OC4=O)cc3F)cn2)n1` [Tedizolid] the Drug sensibility profile (MRSA strain 6) was “S”, the Drug sensibility profile (MRSA strain 7) was “S” and the Drug sensibility profile (MRSA strain 8) was “S”. The Drug sensibility profile (MRSA strain 9) was “S”, the Drug sensibility profile (MRSA strain 10) was “S” and the Drug sensibility profile (MRSA strain 12) was “S”. The Drug sensibility profile (MRSA strain 13) was “S”, the Drug sensibility profile (MRSA strain 14) was “S” and the Drug sensibility profile (MRSA strain 15) was “S”. The Drug sensibility profile (MRSA strain 16) was “S”, the Drug sensibility profile (MRSA strain 17) was “S” and the Drug sensibility profile (MRSA strain 18) was “S”. For the same compound, the Drug sensibility profile (MRSA strain 21) was “S”, the Drug sensibility profile (MRSA strain 23) was “S” and the Drug sensibility profile (MRSA strain 24) was “S”. For the same compound, the Drug sensibility profile (MRSA strain 25) was “S”, the Drug sensibility profile (MRSA strain 26) was “S” and the Drug sensibility profile (MRSA strain 27) was “S”. The Drug sensibility profile (MRSA strain 28) was “S”, the Drug sensibility profile (MRSA strain 29) was “S” and the Drug sensibility profile (MRSA strain 36) was “S”. For the same compound, the Drug sensibility profile (MRSA strain 41) was “S”, the Drug sensibility profile (MRSA strain 42) was “S” and the Drug sensibility profile (MRSA strain 44) was “S”. For the same compound, the Drug sensibility profile (MRSA strain 45) was “S” and the Drug sensibility profile (MRSA strain 51) was “S”.
`CO/N=C(\C(=O)N[C@@H]1C(=O)N2C(C(=O)O)=C(COC(C)=O)CS[C@H]12)c1csc(N)n1` [CEF, cefotaxime] was tested, and the Drug sensibility profile (MRSA strain 1) was “S”, the Drug sensibility profile (MRSA strain 2) was “S” and the Drug sensibility profile (MRSA strain 3) was “S”. The Drug sensibility profile (MRSA strain 4) was “S”, the Drug sensibility profile (MRSA strain 5) was “S” and the Drug sensibility profile (MRSA strain 6) was “R”. The Drug sensibility profile (MRSA strain 7) was “S”, the Drug sensibility profile (MRSA strain 8) was “R” and the Drug sensibility profile (MRSA strain 9) was “S”. The Drug sensibility profile (MRSA strain 10) was “S”, the Drug sensibility profile (MRSA strain 12) was “S” and the Drug sensibility profile (MRSA strain 13) was “R”. For the same compound, the Drug sensibility profile (MRSA strain 14) was “S”, the Drug sensibility profile (MRSA strain 15) was “S” and the Drug sensibility profile (MRSA strain 16) was “S”. The Drug sensibility profile (MRSA strain 17) was “S”, the Drug sensibility profile (MRSA strain 18) was “S” and the Drug sensibility profile (MRSA strain 21) was “R”. The Drug sensibility profile (MRSA strain 23) was “S”, the Drug sensibility profile (MRSA strain 24) was “S” and the Drug sensibility profile (MRSA strain 25) was “S”. The Drug sensibility profile (MRSA strain 26) was “S S S S S S S”, the Drug sensibility profile (MRSA strain 27) was “R” and the Drug sensibility profile (MRSA strain 28) was “S”. For the same compound, the Drug sensibility profile (MRSA strain 29) was “S”, the Drug sensibility profile (MRSA strain 30) was “S” and the Drug sensibility profile (MRSA strain 31) was “R”. The Drug sensibility profile (MRSA strain 34) was “R”, the Drug sensibility profile (MRSA strain 35) was “R” and the Drug sensibility profile (MRSA strain 36) was “S S S S S S S”. For the same compound, the Drug sensibility profile (MRSA strain 40) was “S”, the Drug sensibility profile (MRSA strain 41) was “R” and the Drug sensibility profile (MRSA strain 42) was “S”. For the same compound, the Drug sensibility profile (MRSA strain 43) was “S”, the Drug sensibility profile (MRSA strain 44) was “R” and the Drug sensibility profile (MRSA strain 45) was “S”. For the same compound, the Drug sensibility profile (MRSA strain 46) was “S”, the Drug sensibility profile (MRSA strain 48) was “R” and the Drug sensibility profile (MRSA strain 49) was “S”. For the same compound, the Drug sensibility profile (MRSA strain 50) was “R” and the Drug sensibility profile (MRSA strain 51) was “S”.

Reference: PMC11899342, “Novel Triazeneindole Antibiotics: Synthesis and Hit-to-Lead Optimization” (International Journal of Molecular Sciences, 2025)
